Laboratory results taken from US10047051B2, “Substituted pyridines and method of use” (AbbVie S.á{acute over (.)}r.l., priority 2015, dated 2018).

What was measured:
[1] = biological target: T1, CFTR ΔF508 mutant (Homo sapiens, UniProt P13569, DEL508-508); experiment: YFP-halide influx assay for the CFTR-ΔF508 mutation (CFBE41o- cells); format: cell-based; details: forskolin 10.67 μM; for EC50: from (1−F/F0) vs concentration plot
T1 construct: expressed in transfected cells; host or cells: CFBE41o- cells, adenoviral transduction
From the text: The YFP halide influx assay measured the functionality of the cystic fibrosis Transmembrane Conductance regulator (CFTR) channels in the cystic fibrosis bronchial epithelium cell line CFBE41o-. The assay was used to evaluate the capacity of compounds to increase the open probability of existing CFTR channels in the membrane. It makes use of the observation that the yellow fluorescent protein (YFP) variant YFP H148Q, I152L, F47L has its fluorescence substantially quenched by halide ions like Cl^− and I^− (Galietta, L. J. V., Haggie, P. M., Verkman, A. S., 2001. Green fluorescent protein-based halide indicators with improved chloride and iodide affinities. FEBS Lett. 499, 220-224. doi:10.1016/S0014-5793(01)02561-3; Nagai, T., Ibata, K., Park, E. S., Kubota, M., Mikoshiba, K., Miyawaki, A., 2002. A variant of yellow fluorescent protein with fast and efficient maturation for cell-biological applications. Nat. Biotechnol. 20, 87-90. doi: 10.1038/nbt0102-87).
For this purpose, CFBE41o-cells were seeded in 384 well plates (3000 CFBE cells/well). One day after seeding, the CFBE cells were transduced with adenoviral vectors that direct the expression of the CFTR ΔF508 mutant and of the YFP reporter. Cells were incubated at 27° C., 5% CO2 for 24 hours so as to allow for the proper folding and migration to the membrane of the CFTR channel or treated with a CFTR modulator during 24 hours at 37° C.
(§1) The I-induced quenching of fluorescence was recorded on an immediately after injection of iodide for 2 minutes on an FDSS/μCell (Hamamatsu). The capacity of a compound to increase the channel opening was directly correlated with the decrease in fluorescence, and was expressed as (1−(fluorescence after 36 seconds (F)/fluorescence before injection (F0))) and an EC50 was derived from a (1−F/F0) vs compound concentration plot.

[2] = biological target: T2, CFTR G551D mutant (Homo sapiens, UniProt P13569, G551D); experiment: YFP-halide influx assay for the CFTR-G551D mutation (HEK293 cells); format: cell-based; details: forskolin 10.67 μM
T2 construct: expressed in transfected cells; host or cells: HEK293 cells, reverse transfection with plasmids
From the text: The YFP halide influx assay measured the functionality of the cystic fibrosis Transmembrane Conductance regulator (CFTR) channels. The assay was used to evaluate the capacity of compounds to increase the channel opening of existing mutant CFTR channels in the membrane. It makes use of the observation that the yellow fluorescent protein (YFP) variant YFP H148Q, I152L, F47L has its fluorescence substantially quenched by halide ions like Cl^− and I^− (Galietta, L. J. V., Haggie, P. M., Verkman, A. S., 2001. Green fluorescent protein-based halide indicators with improved chloride and iodide affinities. FEBS Lett. 499, 220-224. doi:10.1016/S0014-5793(01)02561-3).
For this purpose, HEK293-cells were seeded in 96 well plates. During seeding, the cells were reverse-transfected with plasmid vectors that direct the expression of the CFTR G551D mutant and of the YFP reporter. Cells were incubated at 37° C., 5% CO2 for 24 hours so as to allow for sufficient expression of the CFTR protein.
as §1, with “I^−-induced” for “I-induced”, “recorded” for “recorded on an”, “I^−” for “iodide”, “7 seconds.” for “2 minutes on an FDSS/μCell (Hamamatsu).”, “7” for “36”

T1 sequence (P13569 with tags, fused parts or gaps DEL508-508): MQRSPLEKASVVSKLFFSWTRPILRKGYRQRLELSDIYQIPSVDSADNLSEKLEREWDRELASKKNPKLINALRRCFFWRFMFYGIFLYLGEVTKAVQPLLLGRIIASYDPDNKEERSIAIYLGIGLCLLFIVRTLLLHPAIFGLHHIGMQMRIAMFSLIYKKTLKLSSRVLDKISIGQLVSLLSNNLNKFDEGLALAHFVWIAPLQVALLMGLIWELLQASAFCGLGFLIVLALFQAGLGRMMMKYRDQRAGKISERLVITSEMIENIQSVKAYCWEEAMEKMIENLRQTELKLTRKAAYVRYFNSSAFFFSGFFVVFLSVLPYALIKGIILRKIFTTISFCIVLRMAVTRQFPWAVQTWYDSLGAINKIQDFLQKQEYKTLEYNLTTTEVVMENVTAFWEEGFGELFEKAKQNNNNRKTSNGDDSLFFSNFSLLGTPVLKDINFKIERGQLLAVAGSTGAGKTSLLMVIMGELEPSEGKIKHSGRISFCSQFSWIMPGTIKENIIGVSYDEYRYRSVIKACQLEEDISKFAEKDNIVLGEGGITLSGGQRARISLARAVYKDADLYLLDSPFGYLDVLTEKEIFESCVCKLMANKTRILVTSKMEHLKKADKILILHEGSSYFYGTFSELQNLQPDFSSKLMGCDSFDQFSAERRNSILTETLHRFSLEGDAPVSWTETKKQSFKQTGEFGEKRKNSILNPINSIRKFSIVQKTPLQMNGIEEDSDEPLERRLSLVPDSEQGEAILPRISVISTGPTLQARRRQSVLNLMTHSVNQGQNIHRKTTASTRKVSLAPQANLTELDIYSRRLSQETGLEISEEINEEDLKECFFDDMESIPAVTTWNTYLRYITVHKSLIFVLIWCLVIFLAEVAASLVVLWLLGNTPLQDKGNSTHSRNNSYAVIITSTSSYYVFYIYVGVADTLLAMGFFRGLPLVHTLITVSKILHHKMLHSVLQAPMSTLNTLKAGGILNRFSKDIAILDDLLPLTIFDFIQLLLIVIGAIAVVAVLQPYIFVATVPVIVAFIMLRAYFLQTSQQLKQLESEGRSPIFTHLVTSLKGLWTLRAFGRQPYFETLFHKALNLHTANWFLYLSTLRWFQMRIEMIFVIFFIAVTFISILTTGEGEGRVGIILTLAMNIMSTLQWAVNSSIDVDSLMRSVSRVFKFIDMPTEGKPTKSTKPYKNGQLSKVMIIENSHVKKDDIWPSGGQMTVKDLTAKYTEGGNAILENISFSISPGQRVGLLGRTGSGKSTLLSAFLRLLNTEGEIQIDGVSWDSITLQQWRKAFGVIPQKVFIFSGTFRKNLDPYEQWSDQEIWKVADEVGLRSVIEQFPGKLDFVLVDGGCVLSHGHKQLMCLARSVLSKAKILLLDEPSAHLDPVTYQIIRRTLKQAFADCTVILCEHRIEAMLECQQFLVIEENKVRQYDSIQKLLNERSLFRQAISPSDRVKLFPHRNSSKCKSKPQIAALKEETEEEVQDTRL
T2 sequence (P13569 whole entry G551D): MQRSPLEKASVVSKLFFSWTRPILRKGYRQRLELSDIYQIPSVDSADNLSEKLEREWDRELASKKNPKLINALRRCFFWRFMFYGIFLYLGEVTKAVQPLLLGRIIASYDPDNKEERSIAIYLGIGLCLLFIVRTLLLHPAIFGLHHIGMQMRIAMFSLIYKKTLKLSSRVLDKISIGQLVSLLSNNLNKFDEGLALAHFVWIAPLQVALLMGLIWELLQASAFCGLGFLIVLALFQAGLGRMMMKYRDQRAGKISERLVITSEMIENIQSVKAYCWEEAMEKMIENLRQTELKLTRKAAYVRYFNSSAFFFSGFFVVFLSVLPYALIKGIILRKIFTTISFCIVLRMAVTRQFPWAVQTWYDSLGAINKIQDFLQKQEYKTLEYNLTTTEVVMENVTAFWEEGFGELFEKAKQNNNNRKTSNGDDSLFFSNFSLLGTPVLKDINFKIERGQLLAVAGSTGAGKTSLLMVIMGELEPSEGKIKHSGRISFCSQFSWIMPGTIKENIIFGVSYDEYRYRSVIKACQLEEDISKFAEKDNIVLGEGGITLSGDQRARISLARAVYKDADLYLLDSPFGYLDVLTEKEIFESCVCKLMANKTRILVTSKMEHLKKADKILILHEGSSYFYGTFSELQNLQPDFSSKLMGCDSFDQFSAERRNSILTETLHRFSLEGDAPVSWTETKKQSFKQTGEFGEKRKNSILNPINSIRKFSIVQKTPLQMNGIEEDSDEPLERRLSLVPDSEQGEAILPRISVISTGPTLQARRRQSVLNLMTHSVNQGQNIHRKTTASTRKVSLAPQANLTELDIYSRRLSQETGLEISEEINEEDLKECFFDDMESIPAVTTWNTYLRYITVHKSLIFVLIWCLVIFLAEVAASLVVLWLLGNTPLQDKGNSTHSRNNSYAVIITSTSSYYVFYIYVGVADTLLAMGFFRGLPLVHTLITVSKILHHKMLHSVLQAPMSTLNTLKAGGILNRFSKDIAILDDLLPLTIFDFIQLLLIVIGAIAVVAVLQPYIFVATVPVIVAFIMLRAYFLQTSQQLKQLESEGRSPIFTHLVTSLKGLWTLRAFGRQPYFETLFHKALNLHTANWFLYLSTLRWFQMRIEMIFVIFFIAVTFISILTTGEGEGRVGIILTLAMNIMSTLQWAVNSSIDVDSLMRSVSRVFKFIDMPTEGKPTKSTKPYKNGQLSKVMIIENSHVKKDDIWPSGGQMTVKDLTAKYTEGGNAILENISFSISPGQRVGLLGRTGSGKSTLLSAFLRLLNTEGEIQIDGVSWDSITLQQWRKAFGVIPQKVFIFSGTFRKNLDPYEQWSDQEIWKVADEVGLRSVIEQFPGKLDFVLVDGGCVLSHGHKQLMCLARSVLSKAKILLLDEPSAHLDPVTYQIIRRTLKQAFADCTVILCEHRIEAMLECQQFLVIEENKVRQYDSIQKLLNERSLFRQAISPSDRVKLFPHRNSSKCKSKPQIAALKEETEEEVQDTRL

Compound | % Activation [1] | EC50 [1] | % Activation [2] | EC50 [2]
Nc1cc(S(=O)(=O)c2ccc(OC(F)(F)F)cc2F)cnc1C(=O)NC[C@@H](O)C(F)(F)F [Compound 117, 3-amino-5-{[2-fluoro-4-(trifluoromethoxy)phenyl]sulfonyl}-N-[(2R)-3,3,3-trifluoro-2-hydroxypropyl]pyridine-2-carboxamide] | 107.9% | 1.7 nM | 79.8% | 218 nM
COCCN(C)S(=O)(=O)c1cnc(C(=O)NC[C@H](C)O)c(N)c1 [Compound 277, 3-amino-N-[(2S)-2-hydroxypropyl]-5-[(2-methoxyethyl)(methyl)sulfamoyl]pyridine-2-carboxamide] | 65.5% | > 667 nM | 0.8% | > 10000 nM
CNC(=O)[C@@H](NC(=O)c1ncc(S(=O)(=O)c2ccc(OC(F)(F)F)cc2)cc1N)C(C)(C)C [Compound 47, 3-amino-N-[(2S)-3,3-dimethyl-1-(methylamino)-1-oxobutan-2-yl]-5-{[4-(trifluoromethoxy)phenyl]sulfonyl}pyridine-2-carboxamide] | 84.8% | 503 nM | – | –
Nc1cc(S(=O)(=O)c2ccc(OC(F)(F)F)cc2)cnc1C(=O)NC1(C(F)(F)F)CCOCC1 [Compound 193, 3-amino-5-{[4-(trifluoromethoxy)phenyl]sulfonyl}-N-[4-(trifluoromethyl)tetrahydro-2H-pyran-4-yl]pyridine-2-carboxamide] | 26.7% | > 2000 nM | – | –
Nc1cc(S(=O)(=O)c2ccc(OC(F)(F)F)cc2)cnc1C(=O)NCCCCO [Compound 45, 3-amino-N-(4-hydroxybutyl)-5-{[4-(trifluoromethoxy)phenyl]sulfonyl}pyridine-2-carboxamide] | 93.6% | 83.7 nM | – | –
COC[C@H](O)CNC(=O)c1ncc(S(=O)(=O)c2ccccc2)cc1N [Compound 296, 3-amino-N-[(2R)-2-hydroxy-3-methoxypropyl]-5-(phenylsulfonyl)pyridine-2-carboxamide] | 82.1% | 40 nM | – | –
CC[C@H](NC(=O)c1ncc(S(=O)(=O)c2ccc(OC(F)(F)F)cc2)cc1N)C(N)=O [Compound 93, 3-amino-N-[(2S)-1-amino-1-oxobutan-2-yl]-5-{[4-(trifluoromethoxy)phenyl]sulfonyl}pyridine-2-carboxamide] | 96.5% | 95.5 nM | – | –
CC(C)C[C@H](NC(=O)c1ncc(S(=O)(=O)c2ccc(OC(F)(F)F)cc2)cc1N)C(N)=O [Compound 56, N^2-[(3-amino-5-{[4-(trifluoromethoxy)phenyl]sulfonyl}pyridin-2-yl)carbonyl]-L-leucinamide] | 99.4% | 369 nM | – | –
Cc1ccc(C(CO)NC(=O)c2ncc(S(=O)(=O)c3ccc(OC(F)(F)F)cc3)cc2N)cc1 (centres unmarked) [Compound 41, 3-amino-N-[2-hydroxy-1-(4-methylphenyl)ethyl]-5-{[4-(trifluoromethoxy)phenyl]sulfonyl}pyridine-2-carboxamide] | 101.0% | 184 nM | – | –
Nc1cc(S(=O)(=O)c2ccccc2)c(C2CC2)nc1C(=O)NCCO [Compound 260, 3-amino-6-cyclopropyl-N-(2-hydroxyethyl)-5-(phenylsulfonyl)pyridine-2-carboxamide] | 85.2% | 42.5 nM | – | –
Nc1cc(S(=O)(=O)c2ccc(OC(F)(F)F)cc2)cnc1C(=O)NC(CO)CO [Compound 44, 3-amino-N-(1,3-dihydroxypropan-2-yl)-5-{[4-(trifluoromethoxy)phenyl]sulfonyl}pyridine-2-carboxamide] | 73.9% | 323 nM | – | –
CCNC(=O)CNC(=O)c1ncc(S(=O)(=O)c2ccc(OC(F)(F)F)cc2)cc1N [Compound 48, 3-amino-N-[2-(ethylamino)-2-oxoethyl]-5-{[4-(trifluoromethoxy)phenyl]sulfonyl}pyridine-2-carboxamide] | 103.0% | 21.1 nM | – | –
COc1ccc(C(CO)NC(=O)c2ncc(S(=O)(=O)c3ccc(OC(F)(F)F)cc3)cc2N)cc1 (centres unmarked) [Compound 96, 3-amino-N-[2-hydroxy-1-(4-methoxyphenyl)ethyl]-5-{[4-(trifluoromethoxy)phenyl]sulfonyl}pyridine-2-carboxamide] | 105.0% | 245 nM | – | –

Other lines, results leading:

% Activation [1] | EC50 [1] | % Activation [2] | EC50 [2] | Compound
99.7% | 157 nM | 11.7% | > 10000 nM | CC(C)(C)CNC(=O)c1ncc(S(=O)(=O)c2ccc(C(F)(F)F)cc2)cc1N [Compound 191, 3-amino-N-(2,2-dimethylpropyl)-5-{[4-(trifluoromethyl)phenyl]sulfonyl}pyridine-2-carboxamide]
97.5% | 9.6 nM | 104.0% | 967 nM | CC1(F)CN(C(=O)c2ncc(S(=O)(=O)c3ccc(C(F)(F)F)cc3)cc2N)C1 [Compound 294, (3-amino-5-{[4-(trifluoromethyl)phenyl]sulfonyl}pyridin-2-yl)(3-fluoro-3-methylazetidin-1-yl)methanone]
116.0% | 33.5 nM | 83.6% | 1140 nM | CC1(C)CN(C(=O)c2ncc(S(=O)(=O)c3ccc(C(F)(F)F)cc3)cc2N)C1 [Compound 110, (3-amino-5-{[4-(trifluoromethyl)phenyl]sulfonyl}pyridin-2-yl)(3,3-dimethylazetidin-1-yl)methanone]
92.1% | 206 nM | 43.6% | 5770 nM | Nc1cc(S(=O)(=O)c2ccc(OC(F)(F)F)cc2)cnc1C(=O)N1CCC(O)C1 (centres unmarked) [Compound 4, (3-amino-5-{[4-(trifluoromethoxy)phenyl]sulfonyl}pyridin-2-yl)(3-hydroxypyrrolidin-1-yl)methanone]
97.7% | 51 nM | 39.9% | > 10000 nM | Nc1cc(S(=O)(=O)c2ccc(OC(F)(F)F)cc2)cnc1C(=O)N[C@@H]1CCCOC1 [Compound 140, 3-amino-N-[(3R)-tetrahydro-2H-pyran-3-yl]-5-{[4-(trifluoromethoxy)phenyl]sulfonyl}pyridine-2-carboxamide]
92.6% | 236 nM | – | – | CCNC(=O)C(C)NC(=O)c1ncc(S(=O)(=O)c2ccc(OC(F)(F)F)cc2)cc1N (centres unmarked) [Compound 43, 3-amino-N-[1-(ethylamino)-1-oxopropan-2-yl]-5-{[4-(trifluoromethoxy)phenyl]sulfonyl}pyridine-2-carboxamide]
132.0% | 125 nM | – | – | CC(C)[C@H](NC(=O)c1ncc(S(=O)(=O)c2ccc(OC(F)(F)F)cc2)cc1N)C(N)=O [Compound 49, 3-amino-N-[(2S)-1-amino-3-methyl-1-oxobutan-2-yl]-5-{[4-(trifluoromethoxy)phenyl]sulfonyl}pyridine-2-carboxamide]
37.6% | > 2000 nM | – | – | CC(CC(N)=O)NC(=O)c1ncc(S(=O)(=O)c2ccc(OC(F)(F)F)cc2)cc1N (centres unmarked) [Compound 55, 3-amino-N-(4-amino-4-oxobutan-2-yl)-5-{[4-(trifluoromethoxy)phenyl]sulfonyl}pyridine-2-carboxamide]
